{
  "source": "patent US8163753B2",
  "about": "“2,3-dihydro-6-nitroimidazo (2,1-b) oxazole compounds for the treatment of tuberculosis” (priority 2003, dated 2012)",
  "origin": "cited, not measured here",
  "test_system": "multi-drug-resistant Mycobacterium tuberculosis",
  "conditions": "literature report; cited from earlier work",
  "data": [
    {"smiles": "CCC1Cn2cc([N+](=O)[O-])nc2O1", "note": "(stereo not shown) [CGI-17341]", "values": [
      {"measurement": "bactericidal action to multi-drug-resistant Mycobacterium tuberculosis", "value": "has a bactericidal action"}
    ]}
  ]
}
